Literature values as cited in patent US20220370535A1, “ANTIVIRAL ESSENTIAL OIL COMPOSITIONS” (priority 2020, published 2022).

Experiments:
SARS-CoV-2 = conditions: inhibition of the virus in cell-based assay
SARS-CoV-2, Mpro = SARS-CoV-2, Mpro (Severe acute respiratory syndrome coronavirus 2, UniProt P0DTD1); conditions: nelfinavir, pitavastatin, perampanel, praziquantel compared

| Compound | EC50 (SARS-CoV-2) [µM] | inhibitor ranking among 4 tested drugs (SARS-CoV-2, Mpro) |
| --- | --- | --- |
| CCN(CC)CCCC(C)Nc1ccnc2cc(Cl)ccc12 (centres unmarked) [chloroquine] | 1.13 | – |
| Cc1c(O)cccc1C(=O)N[C@@H](CSc1ccccc1)[C@H](O)CN1C[C@H]2CCCC[C@H]2C[C@H]1C(=O)NC(C)(C)C [nelfinavir] | – | most potential inhibitor |
